Test results from PMC2852246 (Journal of nuclear medicine : official publication, Society …, 2010).
Values joined by “and” are separate entries in the source; they are usually repeats but may differ in a detail not shown here. Equal values may be shown once. Read-outs that look alike come from different tables or passages of the source.

Key:
[1] = determined by Health Canada; cited from earlier work
[2] = single dose of 10 mg, eight human volunteers; cited from earlier work
[3] = cited from earlier work
[4] = earlier study of 106 subjects referred for potential kidney donation; cited from earlier work
[5] = 106 subjects referred for potential kidney donation; cited from earlier work
[6] = cited from earlier work; remark: listed apart in the source
[7] = Percentage uptake in erythrocytes; assay type: in vitro ADME, human; settings: healthy volunteers, no correction for trapped plasma, mean ± SD
[8] = Plasma protein binding by ultracentrifugation; assay type: in vitro ADME, human; settings: healthy volunteers, mean ± SD
[9] = Renal imaging and renogram parameters; assay type: in vivo, human
[10] = Percentage injected dose in the urine of healthy volunteers; assay type: in vivo, human
[11] = cortical (parenchymal) region of interest, left kidney, n = 9
[12] = cortical (parenchymal) region of interest, right kidney, n = 9
[13] = whole-kidney region of interest, relative uptake, n = 9, mean (SD)

## O=C(O)CN(CC(=O)O)CC(=O)O [NTA, Nitrilotriacetic acid]
[1]
  acceptable daily intake in drinking water: 10 μg/kg of body weight per day
[2]
  adverse effects after ingestion: No adverse effects

## O=C([O-])CN(CCN(CC(=O)[O-])CC(=O)[O-])CCN(CC(=O)[O-])CC(=O)[O-].[99Tc+4] [^99mTc-DTPA, ^99mTc-diethyltriaminepentaacetic acid]
[3]
  extraction fraction: 20%

## O=C([O-])CN=C([O-])CN=C([O-])CN=C([O-])C[S-].[O-2].[Tc+4] [^99mTc-MAG3, ^99mTc-mercaptoacetyltriglycine]
[4]
  cortical 20 min/max: 0.19
[5]
  camera-based clearance: 321 ± 69 mL/min/1.73 m^2
[6]
  clearance as percentage of the clearance of 131I-OIH: 50%-60%
[6]; multiple studies
  plasma clearance as percentage of the 131I-OIH clearance: 50–60%
[3]
  extraction fraction: 40%-60%

## O=C(O)CNC(=O)c1ccccc1[131I] [^131I-OIH, ^131I ortho-iodohippuran]
[7]
  red cell uptake: 17 ± 5%
[8]
  plasma protein binding: 75 ± 3%
[9]; [11]
  Left cortical TTP: 2.46 ± 0.73 min
  Left cortical TTP (min): 2.46 (0.73) min
[9]; [12]
  Right cortical TTP: 1.98 ± 0.60 min
  Right cortical TTP (min): 1.98 (0.6) min
[9]; healthy volunteers, kidney side not specified
  cortical 20 min/max: 0.10
[9]; whole-kidney region of interest, 20 min-to-maximum count ratio, n = 9, mean (SD)
  Left kidney 20 min/max: 0.11 (0.03)
[9]; whole-kidney region of interest, n = 9, mean (SD)
  Right kidney TTP (min): 2.8 (1.6) min
[9]; [13]
  Left kidney Uptake %: 49.0 ± 4.1% and 49.0 (4.1) %
  Right kidney Uptake %: 51.0 (4.1) %
[9]; whole-kidney region of interest, time to peak of renogram, n = 9, mean (SD)
  Left kidney TTP (min): 2.6 (0.6) min
[6]; earlier study of healthy volunteers
  mean plasma clearance: 530 mL/min
[10]; 30 min after injection
  percent injected dose in the urine at 30 min: 69 ± 11%
[10]; 180 min after injection
  percent injected dose in the urine at 180 min (3 h): 91 ± 6%
